Data: ChEMBL document CHEMBL1131932, “Simplification of adenophostin A defines a minimal structure for potent glucopyranoside-based mimics of D-myo-inositol 1,4,5-trisphosphate” (Bioorg Med Chem Lett, 1999)

Species: Rattus norvegicus
Assay: Effect on [Ca2+] efflux in rat hepatocytes
Format: functional
Details: Hepatocyte

Structure (SMILES) | EC50 [nM]
O=P(O)(O)O[C@@H]1[C@H](O)[C@@H](O[C@@H]2COC[C@@H]2OP(=O)(O)O)O[C@@H](CO)[C@H]1OP(=O)(O)O | 194
O=P(O)(O)O[C@@H]1[C@H](O)[C@H](O)[C@@H](OP(=O)(O)O)[C@H](OP(=O)(O)O)[C@H]1O [INS(1,4,5)P3] | 329
